Data published in ChEMBL document CHEMBL4396916, “Novel potent substituted 4-amino-2-thiopyrimidines as dual VEGFR-2 and BRAF kinase inhibitors” (Eur J Med Chem, 2019).

Assays:
T47D [1] = assay: Growth inhibition of human T47D cells at 10 uM incubated for 48 hrs by sulforhodamine B assay relative to control; format: functional; conditions: read-out: GI
OVCAR-8 = assay: Growth inhibition of human OVCAR8 cells at 10 uM incubated for 48 hrs by sulforhodamine B assay relative to control; format: functional; conditions: OVCAR-8, 48 h, read-out: GI
[2] = biological target: Vascular endothelial growth factor receptor 2 (Homo sapiens, UniProt P35968); assay: Inhibition of human N-terminal GST tagged VEGFR-2 expressed in baculovirus infected Sf9 cells using poly (Glu,Tyr) 4:1 as substrate in presence of ATP by Kinase-Glo luminescence assay
UACC-257 = assay: Growth inhibition of human UACC257 cells at 10 uM incubated for 48 hrs by sulforhodamine B assay relative to control; format: functional; conditions: UACC-257, 48 h, read-out: GI
IGROV-1 = assay: Growth inhibition of human IGROV1 cells at 10 uM incubated for 48 hrs by sulforhodamine B assay relative to control; format: functional; conditions: IGROV-1, 48 h, read-out: GI
HT-29 = assay: Growth inhibition of human HT-29 cells at 10 uM incubated for 48 hrs by sulforhodamine B assay relative to control; format: functional; conditions: HT-29, 48 h, read-out: GI
CAKI-1 = assay: Growth inhibition of human Caki1 cells at 10 uM incubated for 48 hrs by sulforhodamine B assay relative to control; format: functional; conditions: CAKI-1, 48 h, read-out: GI
MOLT-4 = assay: Growth inhibition of human MOLT4 cells at 10 uM incubated for 48 hrs by sulforhodamine B assay relative to control; format: functional; conditions: MOLT-4, 48 h, read-out: GI
BT-549 = assay: Growth inhibition of human BT549 cells at 10 uM incubated for 48 hrs by sulforhodamine B assay relative to control; format: functional; conditions: BT-549, 48 h, read-out: GI
MDA-MB-468 = assay: Growth inhibition of human MDA-MB-468 cells at 10 uM incubated for 48 hrs by sulforhodamine B assay relative to control; format: functional; conditions: MDA-MB-468, 48 h, read-out: GI
K562 = assay: Growth inhibition of human K562 cells at 10 uM incubated for 48 hrs by sulforhodamine B assay relative to control; format: functional; conditions: K562, 48 h, read-out: GI
MCF7 [3] = assay: Inhibition of VEGFR2 level in human MCF7 cells at 10 uM measured after 48 hrs by ELISA relative to control; format: functional; conditions: MCF7, 48 h
KM12 = assay: Growth inhibition of human KM12 cells at 10 uM incubated for 48 hrs by sulforhodamine B assay relative to control; format: functional; conditions: KM12, 48 h, read-out: GI
MCF7 [4] = assay: Cytotoxicity against human MCF7 cells expressing VEGFR2 and wild type BRAF measured after 48 hrs by sulforhodamine B assay; format: functional, cell-based; conditions: MCF7, 48 h
A498 = assay: Growth inhibition of human A498 cells at 10 uM incubated for 48 hrs by sulforhodamine B assay relative to control; format: functional; conditions: A498, 48 h, read-out: GI
HCT-15 = assay: Growth inhibition of human HCT15 cells at 10 uM incubated for 48 hrs by sulforhodamine B assay relative to control; format: functional; conditions: HCT-15, 48 h, read-out: GI
OVCAR-4 = assay: Growth inhibition of human OVCAR4 cells at 10 uM incubated for 48 hrs by sulforhodamine B assay relative to control; format: functional; conditions: OVCAR-4, 48 h, read-out: GI
NCI-H522 = assay: Growth inhibition of human NCI-H522 cells at 10 uM incubated for 48 hrs by sulforhodamine B assay relative to control; format: functional; conditions: NCI-H522, 48 h, read-out: GI
HCT-116 = assay: Growth inhibition of human HCT116 cells at 10 uM incubated for 48 hrs by sulforhodamine B assay relative to control; format: functional; conditions: HCT-116, 48 h, read-out: GI
MCF7 [5] = assay: Growth inhibition of human MCF7 cells at 10 uM incubated for 48 hrs by sulforhodamine B assay relative to control; format: functional; conditions: MCF7, 48 h, read-out: GI
SN12C = assay: Growth inhibition of human SN12C cells at 10 uM incubated for 48 hrs by sulforhodamine B assay relative to control; format: functional; conditions: read-out: GI
NCI-H226 = assay: Growth inhibition of human NCI-H226 cells at 10 uM incubated for 48 hrs by sulforhodamine B assay relative to control; format: functional; conditions: NCI-H226, 48 h, read-out: GI
MDA-MB-231 = assay: Growth inhibition of human MDA-MB-231 cells at 10 uM incubated for 48 hrs by sulforhodamine B assay relative to control; format: functional; conditions: MDA-MB-231, 48 h, read-out: GI
MDA-MB-435 = assay: Growth inhibition of human MDA-MB-435 cells at 10 uM incubated for 48 hrs by sulforhodamine B assay relative to control; format: functional; conditions: MDA-MB-435, 48 h, read-out: GI
UO-31 = assay: Growth inhibition of human UO31 cells at 10 uM incubated for 48 hrs by sulforhodamine B assay relative to control; format: functional; conditions: UO-31, 48 h, read-out: GI
CCRF-CEM = assay: Growth inhibition of human CCRF-CEM cells at 10 uM incubated for 48 hrs by sulforhodamine B assay relative to control; format: functional; conditions: read-out: GI
NCI-H460 = assay: Growth inhibition of human NCI-H460 cells at 10 uM incubated for 48 hrs by sulforhodamine B assay relative to control; format: functional; conditions: NCI-H460, 48 h, read-out: GI
M14 = assay: Growth inhibition of human M14 cells at 10 uM incubated for 48 hrs by sulforhodamine B assay relative to control; format: functional; conditions: M14, 48 h, read-out: GI
NCI/ADR-RES = assay: Growth inhibition of human NCI/ADR-RES cells at 10 uM incubated for 48 hrs by sulforhodamine B assay relative to control; format: functional; conditions: read-out: GI
[6] = biological target: Serine/threonine-protein kinase B-raf (Homo sapiens, UniProt P15056); assay: Inhibition of human wild type BRAF by Kinase-Glo luminescence assay
LOX IMVI = assay: Growth inhibition of human LOXIMVI cells at 10 uM incubated for 48 hrs by sulforhodamine B assay relative to control; format: functional; conditions: read-out: GI
SF-539 = assay: Growth inhibition of human SF539 cells at 10 uM incubated for 48 hrs by sulforhodamine B assay relative to control; format: functional; conditions: SF-539, 48 h, read-out: GI
T47D [7] = assay: Cytotoxicity against human T47D cells expressing wild type BRAF measured after 48 hrs by sulforhodamine B assay; format: functional, cell-based
EKVX = assay: Growth inhibition of human EKVX cells at 10 uM incubated for 48 hrs by sulforhodamine B assay relative to control; format: functional; conditions: read-out: GI
PC-3 = assay: Growth inhibition of human PC3 cells at 10 uM incubated for 48 hrs by sulforhodamine B assay relative to control; format: functional; conditions: PC-3, 48 h, read-out: GI
SK-MEL-5 = assay: Growth inhibition of human SK-MEL-5 cells at 10 uM incubated for 48 hrs by sulforhodamine B assay relative to control; format: functional; conditions: SK-MEL-5, 48 h, read-out: GI
ACHN = assay: Growth inhibition of human ACHN cells at 10 uM incubated for 48 hrs by sulforhodamine B assay relative to control; format: functional; conditions: read-out: GI
SR = assay: Growth inhibition of human SR cells at 10 uM incubated for 48 hrs by sulforhodamine B assay relative to control; format: functional; conditions: read-out: GI
A549 = assay: Growth inhibition of human A549/ATCC cells at 10 uM incubated for 48 hrs by sulforhodamine B assay relative to control; format: functional; conditions: A549, 48 h, read-out: GI
DU-145 = assay: Growth inhibition of human DU145 cells at 10 uM incubated for 48 hrs by sulforhodamine B assay relative to control; format: functional; conditions: DU-145, 48 h, read-out: GI
SK-MEL-28 = assay: Growth inhibition of human SK-MEL-28 cells at 10 uM incubated for 48 hrs by sulforhodamine B assay relative to control; format: functional; conditions: SK-MEL-28, 48 h, read-out: GI
RPMI-8226 = assay: Growth inhibition of human RPMI8226 cells at 10 uM incubated for 48 hrs by sulforhodamine B assay relative to control; format: functional; conditions: RPMI-8226, 48 h, read-out: GI
SF-295 = assay: Growth inhibition of human SF295 cells at 10 uM incubated for 48 hrs by sulforhodamine B assay relative to control; format: functional; conditions: SF-295, 48 h, read-out: GI
NCI-H23 = assay: Growth inhibition of human NCI-H23 cells at 10 uM incubated for 48 hrs by sulforhodamine B assay relative to control; format: functional; conditions: NCI-H23, 48 h, read-out: GI
UACC-62 = assay: Growth inhibition of human UACC62 cells at 10 uM incubated for 48 hrs by sulforhodamine B assay relative to control; format: functional; conditions: UACC-62, 48 h, read-out: GI

Vascular endothelial growth factor receptor 2, sequence (P35968 whole entry): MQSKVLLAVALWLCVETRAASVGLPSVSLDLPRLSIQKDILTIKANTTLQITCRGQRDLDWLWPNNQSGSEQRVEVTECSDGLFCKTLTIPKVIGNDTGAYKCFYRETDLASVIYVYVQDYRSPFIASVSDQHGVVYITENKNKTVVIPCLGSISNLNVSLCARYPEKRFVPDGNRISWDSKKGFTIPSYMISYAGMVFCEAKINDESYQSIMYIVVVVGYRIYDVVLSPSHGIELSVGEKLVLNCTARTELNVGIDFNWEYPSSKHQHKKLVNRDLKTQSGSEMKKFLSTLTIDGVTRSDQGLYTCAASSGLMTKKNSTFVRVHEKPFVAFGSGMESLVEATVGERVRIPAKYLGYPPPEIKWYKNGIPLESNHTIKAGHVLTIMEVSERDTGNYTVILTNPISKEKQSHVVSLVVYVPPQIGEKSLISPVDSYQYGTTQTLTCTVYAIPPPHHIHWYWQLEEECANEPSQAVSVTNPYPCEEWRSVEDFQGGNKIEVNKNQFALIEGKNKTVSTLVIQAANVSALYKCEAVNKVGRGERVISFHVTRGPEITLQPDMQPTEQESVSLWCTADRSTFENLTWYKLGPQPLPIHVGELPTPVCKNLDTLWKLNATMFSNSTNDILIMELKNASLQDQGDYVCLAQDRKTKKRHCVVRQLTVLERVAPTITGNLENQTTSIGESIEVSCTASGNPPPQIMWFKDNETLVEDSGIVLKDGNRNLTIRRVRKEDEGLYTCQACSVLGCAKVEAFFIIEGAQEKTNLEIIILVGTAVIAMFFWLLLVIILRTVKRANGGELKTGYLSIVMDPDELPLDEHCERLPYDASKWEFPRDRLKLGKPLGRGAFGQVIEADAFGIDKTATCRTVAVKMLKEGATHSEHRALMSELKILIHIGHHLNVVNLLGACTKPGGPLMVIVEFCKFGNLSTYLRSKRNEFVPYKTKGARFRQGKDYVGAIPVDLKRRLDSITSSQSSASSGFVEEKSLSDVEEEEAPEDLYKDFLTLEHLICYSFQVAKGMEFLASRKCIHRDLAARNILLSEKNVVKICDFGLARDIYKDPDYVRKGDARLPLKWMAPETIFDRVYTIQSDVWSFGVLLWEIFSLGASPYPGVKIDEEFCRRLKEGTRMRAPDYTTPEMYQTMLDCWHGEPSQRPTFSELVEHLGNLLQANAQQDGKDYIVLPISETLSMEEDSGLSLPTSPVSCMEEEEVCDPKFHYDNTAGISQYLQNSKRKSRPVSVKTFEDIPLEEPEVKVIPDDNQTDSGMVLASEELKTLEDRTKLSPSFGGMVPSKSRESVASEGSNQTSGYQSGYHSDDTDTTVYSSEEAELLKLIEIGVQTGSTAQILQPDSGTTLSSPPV
Serine/threonine-protein kinase B-raf, sequence (P15056 whole entry): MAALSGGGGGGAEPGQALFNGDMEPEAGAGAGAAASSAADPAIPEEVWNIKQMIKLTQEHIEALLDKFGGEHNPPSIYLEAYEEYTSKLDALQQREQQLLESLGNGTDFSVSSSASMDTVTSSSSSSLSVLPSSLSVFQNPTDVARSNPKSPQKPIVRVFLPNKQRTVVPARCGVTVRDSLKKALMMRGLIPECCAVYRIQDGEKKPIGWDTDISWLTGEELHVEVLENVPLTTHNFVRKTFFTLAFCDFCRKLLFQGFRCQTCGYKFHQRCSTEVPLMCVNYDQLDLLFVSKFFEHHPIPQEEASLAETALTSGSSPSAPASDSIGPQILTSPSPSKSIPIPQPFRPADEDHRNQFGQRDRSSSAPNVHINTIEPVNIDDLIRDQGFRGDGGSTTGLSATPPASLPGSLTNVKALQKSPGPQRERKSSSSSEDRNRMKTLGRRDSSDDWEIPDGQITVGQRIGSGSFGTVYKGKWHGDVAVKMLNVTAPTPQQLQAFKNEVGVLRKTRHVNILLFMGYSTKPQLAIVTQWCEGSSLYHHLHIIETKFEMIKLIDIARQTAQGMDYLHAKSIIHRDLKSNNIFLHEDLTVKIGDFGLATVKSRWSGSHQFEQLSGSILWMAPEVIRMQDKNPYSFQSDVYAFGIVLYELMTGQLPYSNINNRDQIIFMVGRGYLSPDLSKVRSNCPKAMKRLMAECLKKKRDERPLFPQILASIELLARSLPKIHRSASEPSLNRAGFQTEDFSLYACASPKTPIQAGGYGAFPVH

IC50 [2]: 0.41 µM
IC50 [6]: 0.22 µM
Structure (SMILES): CCOC(=O)c1ccc(Nc2ccnc(SCC(=O)c3ccc([N+](=O)[O-])cc3)n2)cc1
inhibition of growth at 10 µM (T47D [1]): 60%
inhibition of growth at 10 µM (OVCAR-8): 31%
inhibition of growth at 10 µM (UACC-257): 13%
inhibition of growth at 10 µM (IGROV-1): 19%
inhibition of growth at 10 µM (HT-29): 19%
inhibition of growth at 10 µM (CAKI-1): 16%
inhibition of growth at 10 µM (MOLT-4): 58%
inhibition of growth at 10 µM (BT-549): 28%
inhibition of growth at 10 µM (MDA-MB-468): 51%
inhibition of growth at 10 µM (K562): 37%
inhibition at 10 µM (MCF7 [3]): 80%
inhibition of growth at 10 µM (KM12): 21%
IC50 (MCF7 [4]): 16.5 µM
inhibition of growth at 10 µM (A498): 61%
inhibition of growth at 10 µM (HCT-15): 13%
inhibition of growth at 10 µM (OVCAR-4): 20%
inhibition of growth at 10 µM (NCI-H522): 37%
inhibition of growth at 10 µM (HCT-116): 26%
inhibition of growth at 10 µM (MCF7 [5]): 22%
inhibition of growth at 10 µM (SN12C): 17%
inhibition of growth at 10 µM (NCI-H226): 16%
inhibition of growth at 10 µM (MDA-MB-231): 22%
inhibition of growth at 10 µM (MDA-MB-435): 15%
inhibition of growth at 10 µM (UO-31): 41%
inhibition of growth at 10 µM (CCRF-CEM): 49%
inhibition of growth at 10 µM (NCI-H460): 11%
inhibition of growth at 10 µM (M14): 16%
inhibition of growth at 10 µM (NCI/ADR-RES): 27%
inhibition of growth at 10 µM (LOX IMVI): 10%
inhibition of growth at 10 µM (SF-539): 11%
IC50 (T47D [7]): 8.09 µM
inhibition of growth at 10 µM (EKVX): 27%
inhibition of growth at 10 µM (PC-3): 33%
inhibition of growth at 10 µM (SK-MEL-5): 41%
inhibition of growth at 10 µM (ACHN): 15%
inhibition of growth at 10 µM (SR): 35%
inhibition of growth at 10 µM (A549): 21%
inhibition of growth at 10 µM (DU-145): 16%
inhibition of growth at 10 µM (SK-MEL-28): 11%
inhibition of growth at 10 µM (RPMI-8226): 54%
inhibition of growth at 10 µM (SF-295): 28%
inhibition of growth at 10 µM (NCI-H23): 13%
inhibition of growth at 10 µM (UACC-62): 29%
